# From patent US7332473B2, “Peptides and medicinal compositions containing the same” (priority 2002, dated 2008)
# Like-named read-outs stand apart in the source and are kept apart here. Ends that are not written are not given here.
# Experiments:
# [1] = Helical content from circular dichroism spectra; type: physicochemical; details: 20 mM Tris-HCl buffer (pH 7.4), calculation by Greenfield et al.
# Description: VIP (peptide 1, SEQ ID NO: 2), peptide 7 (SEQ ID NO: 8) corresponding to 25 residues at the N-terminus of VIP, and peptide 8 (SEQ ID NO: 9), which is a peptide 7 derivative with its methionine-17 being oxidized, were dissolved in a 20 mM Tris-HCl buffer (pH 7.4), and the circular dichroism spectra thereof were examined using the Jasco J-720 (Jasco Corporation). According to analytical calculation of higher-order structure by Greenfield et al., the helical content of peptide 1 was about 50% (FIG. 2).
# gastric constriction = assay: Inhibitory effect on gastric peristaltic movement (carbachol-constricted isolated stomach, Magnus tank); design: species or system ICR mice; details: test peptides 10^−6 M, carbachol 3×10^−6 M, 15 minutes after drug administration, level of peptide 9 (control drug) = 100
# [2] = Stability of peptide 4 in distilled water, 40° C., 24 hours (reverse phase HPLC); type: physicochemical
# Description: Peptide 4, a modified peptide, having a higher Arg content than wild-type VIP was weighed and fractionated to about 1 mg, the fractions were dissolved in distilled water adjusted to pH levels of 4.0, 5.0, 6.0, and 7.0 (Otsuka Distilled Water), and the final concentration was adjusted to 10 μg/ml. The resulting solutions were allowed to stand in an incubator at 40° C. (LH20-11M, Nagano Kagaku) for 24 hours, analysis was carried out via reverse phase HPLC (wavelength: 220 nm; mobile phase: 28% acetonitrile/0.1% trifluoroacetic acid; column: ODS-120T (Tosoh); column temperature: 25° C.), and the amount of remaining peptide 4 was examined.
# physchem [3] = type: physicochemical; details: buffer or solvent
# Description: Adequate amounts of peptides 4, 12, 21, and 23 were fractionated via weighing and then dissolved in distilled water (Otsuka Distilled Water) adjusted at pH levels of 6.0 and 7.0 to bring the final concentration to 10 μg/ml. The resulting solutions were allowed to stand in an incubator at 55° C. (FC-610, Advantec) for 3 days, and reverse phase HPLC analysis was carried out (wavelength: 220 nm; mobile phase: acetonitrile (29.5%)/trifluoroacetic acid (0.1%); column: ODS-120T (Tosoh); column temperature: 25° C.) to examine the quantities of remaining peptides 4, 12, 21, and 23. […] This was particularly apparent at pH 7.0.
# physchem [4] = type: physicochemical; details: pH 7; for remaining at 240 h, 100 μg/ml / remaining at 480 h, 100 μg/ml / remaining at 720 h, 100 μg/ml: buffer or solvent
# Description: Adequate amounts of peptides 4, 12, 21, and 23 were fractionated via weighing and then dissolved in distilled water (Otsuka Distilled Water) adjusted at the pH level of 7.0 to bring the final concentration to 100 μg/ml. The resulting solutions were allowed to stand in an incubator at 55° C. (FC-610, Advantec) for 0, 10, 20, and 30 days, respectively, and reverse phase HPLC analysis was carried out (wavelength: 220 nm; mobile phase: acetonitrile (29.5%)/trifluoroacetic acid (0.1%); column: ODS-120T (Tosoh); column temperature: 25° C.) to examine the amount of remaining peptides 4, 12, 21, and 23.
# physchem [5] = type: physicochemical; details: for remaining at 168 h, 100 μg/ml: buffer
# Description: (§1) Adequate amounts of peptides 4, 12, 21, and 23 were fractionated via weighing and then dissolved in phosphate buffers (aqueous solution of 0.001% sodium dihydrogen phosphate) adjusted to pH levels of 6.0 and 7.0 to bring the final concentration to 100 μg/ml. The resulting solutions were allowed to stand in a thermo-hygrostat (LH-20-11, Nagano Kagaku) at 40° C. and 75% RH for a week, and reverse phase HPLC analysis was carried out (wavelength: 220 nm; mobile phase: acetonitrile (29.5%)/trifluoroacetic acid (0.1%); column: ODS-120T (Tosoh); column temperature: 25° C.) to examine the quantities of remaining peptides 4, 12, 21, and 23.
# physchem [6] = type: physicochemical; details: pH 7; for remaining at 240 h, 100 μg/ml / remaining at 480 h, 100 μg/ml / remaining at 720 h, 100 μg/ml: buffer
# Description: as §1, with “phosphate buffer (an aqueous” for “phosphate buffers (aqueous”, “adjusted at the” for “adjusted to”, “pH level” for “pH levels”, “of” for “of 6.0 and”, “for 0, 10, 20, and 30 days,” for “for a week,”
# PC-12 cells = assay: Effect of inducing neurite formation; type: cell-based, rat; details: peptides 100 nM, cultured 3 days, compared to control without peptide and peptide 1
# Description: Effect of peptides 1, 4, 12, 21, and 23 for inducing neurite formation were tested in the manner described below. PC-12 cells were cultured in Dulbecco's modified minimum essential medium (DMEM) containing 5% horse serum and 5% fetal calf serum in the presence of 5% CO2 and 95% air at 37° C. Cells were separated from the culture flask with the aid of trypsin, counted using a cytometer, and then the concentration was adjusted to 1.0×10^4 cells/ml. The cell-containing liquid medium was added to a Biocoat type IV collagen-coated 24-well dish in amounts of 1 ml each and then cultured in the presence of 5% CO2 and 95% air at 37° C. for 24 hours. The medium was replaced 24 hours later, and peptides (100 nM) were added at that time. The resultant was continuously cultured for 3 days and then photographed. […] The scale bar in each photograph represents 100 μm.
# PC12 cells = type: cell-based, rat
# bronchial smooth muscle = assay: Relaxant effect on bronchial smooth muscle (carbachol-constricted trachea, Magnus tank); design: species or system Hartley male guinea pigs; details: carbachol (3×10^−7 M)-induced constriction; peptide 12 cumulative 10^−9 M to 3×10^−6 M, peptides 21 and 23 single 3×10^−6 M; isoproterenol 10^−6 M = 100% relaxation
Substance,Level of constriction inhibition (gastric constriction),"remaining at 72 h, 10 μg/ml (physchem [3]; pH 7)","remaining at 240 h, 100 μg/ml (physchem [4])","remaining at 480 h, 100 μg/ml (physchem [4])","remaining at 720 h, 100 μg/ml (physchem [4])",stability (in words) (physchem [4]),"remaining at 168 h, 100 μg/ml (physchem [5]; pH 6)","remaining at 168 h, 100 μg/ml (physchem [5]; pH 7)","remaining at 240 h, 100 μg/ml (physchem [6])","remaining at 480 h, 100 μg/ml (physchem [6])",neurite formation (in words) (PC-12 cells),"neuroprotective effect, viable cell counts (in words) (PC12 cells)","remaining at 72 h, 10 μg/ml (physchem [3]; pH 6)",stability (in words) (physchem [5]; pH 6),"remaining at 720 h, 100 μg/ml (physchem [6])",effect of relaxing the trachea (in words) (bronchial smooth muscle),other results
"His-Ser-Asp-Ala-Val-Phe-Thr-Asp-Asn-Tyr-Thr-Arg-Leu-Arg-Lys-Gln-Met-Ala-Val-Lys-Lys-Tyr-Leu-Asn-Ser-NH2 (HSDAVFTDNYTRLRKQMAVKKYLNS-NH2) [Peptide 7, corresponding to 25 residues at the N-terminus of VIP]",–,–,–,–,–,–,–,–,–,–,–,–,–,–,–,–,helical content [1]: would retain a good deal of such higher-order structure
His-Ser-Asp-Ala-Val-Phe-Thr-Asp-Asn-Tyr-Thr-Arg-Leu-Arg-Arg-Gln-Leu-Ala-Val-Arg-Arg-Tyr-Leu-NH2 (HSDAVFTDNYTRLRRQLAVRRYL-NH2) [Peptide 10],227,–,–,–,–,–,–,–,–,–,–,–,–,–,–,–,–
"H-HSDAVFTDNYTRLRRQLAVRRYLNSILNGRR-NH2 [Peptide 4, reference compound]",–,67%,0%,0%,0%,completely disappeared after storage for 10 days,53%,35%,28%,13%,significantly induced neurite formation,significantly higher than that of peptide 1,–,–,–,–,"remaining at 24 h ([2]; buffer or solvent, pH 5.0, distilled water, 10 μg/ml, 40° C., read-out: Amount of remaining peptide): 90%; peptide degradation (in words) ([2]; distilled water pH 4.0 to 7.0, 40° C.): peptide degradation was significant at around the neutral pH region; remaining at 24 h, 10 μg/ml ([2]; pH 4.0, distilled water, 10 μg/ml, 40° C., read-out: Amount of remaining peptide): 91%; remaining at 24 h, 10 μg/ml ([2]; pH 6.0, distilled water, 10 μg/ml, 40° C., read-out: Amount of remaining peptide): 93%; remaining at 24 h, 10 μg/ml ([2]; pH 7.0, distilled water, 10 μg/ml, 40° C., read-out: Amount of remaining peptide): 84%; stability (in words) (physchem [6]): disappeared 30 days later"
"His-Ser-Asp-Ala-Val-Phe-Thr-Asp-Asn-Tyr-Thr-Arg-Leu-Arg-Lys-Gln-Leu-Ala-Val-Lys-Lys-Tyr-Leu-NH2 (HSDAVFTDNYTRLRKQLAVKKYL-NH2) [Peptide 9, reference compound]",100,–,–,–,–,–,–,–,–,–,–,–,–,–,–,–,–
H-HSDAVFTANYTRLRRQLAVRRYLAAILGRR-NH2 [Peptide 23],–,–,62%,42%,30%,still remained 30 days later,100%,–,98%,89%,significantly induced neurite formation,significantly higher than that of peptide 1,100%,significantly improved compared to that of peptide 4,73%,apparent peptide-addition-dependent effect of relaxing the trachea,–
H-HSDAVFTENYTRLRRQLAVRRYLAAILGRR-NH2 [Peptide 21],–,100%,29%,45%,10%,still remained 30 days later,100%,87%,100%,76%,significantly induced neurite formation,significantly higher than that of peptide 1,93%,significantly improved compared to that of peptide 4,59%,apparent peptide-addition-dependent effect of relaxing the trachea,–
H-HSDAVFTDNYTRLRRQLAVRRYLAAILGRR-NH2 [Peptide 12],–,100%,49%,34%,18%,still remained 30 days later,100%,90%,84%,86%,significantly induced neurite formation,significantly higher than that of peptide 1,94%,significantly improved compared to that of peptide 4,73%,apparent peptide-addition-dependent effect of relaxing the trachea,–
"His-Ser-Asp-Ala-Val-Phe-Thr-Asp-Asn-Tyr-Thr-Arg-Leu-Arg-Lys-Gln-Met-Ala-Val-Lys-Lys-Tyr-Leu-Asn-Ser-Ile-Leu-Asn-NH2 [Peptide 1, reference compound]",–,–,–,–,–,–,–,–,–,–,–,significant neuroprotective effects,–,–,–,–,helical content [1]: about 50%
His-Ser-Asp-Gly-Ile-Phe-Thr-Asp-Ser-Tyr-Ser-Arg-Tyr-Arg-Arg-Gln-Leu-Ala-Val-Arg-Arg-Tyr-Leu-NH2 (HSDGIFTDSYSRYRRQLAVRRYL-NH2) [Peptide 33],160,–,–,–,–,–,–,–,–,–,–,–,–,–,–,–,–
